Reference: ChEMBL document CHEMBL3098092, “Fluorescent probes of the isoxazole-dihydropyridine scaffold: MDR-1 binding and homology model” (Bioorg Med Chem Lett, 2014)

What was measured:
[1] = Drug uptake in human SH-SY5Y cells at 10 uM after 90 mins by confocal fluorescence microscopy analysis; type: ADME, cell-based; conditions: 1.5 h
[2] = molecular target: MDR-1 (P-glycoprotein, ABCB1) (Homo sapiens, UniProt P08183); assay: Inhibition of MDR-1 (unknown origin) expressed in human Caco2 cells using Calcein-AM at 50 uM preincubated for 30 mins by fluorescence based PDSP assay relative to control; type: cell-based; conditions: Caco-2 cells expressing MDR-1, probe Calcein-AM
[3] = Drug uptake in human SH-SY5Y cells at 1 uM after 90 mins by confocal fluorescence microscopy analysis; type: ADME, cell-based; conditions: 1.5 h

Sequence of MDR-1 (P-glycoprotein, ABCB1) (P08183 whole entry): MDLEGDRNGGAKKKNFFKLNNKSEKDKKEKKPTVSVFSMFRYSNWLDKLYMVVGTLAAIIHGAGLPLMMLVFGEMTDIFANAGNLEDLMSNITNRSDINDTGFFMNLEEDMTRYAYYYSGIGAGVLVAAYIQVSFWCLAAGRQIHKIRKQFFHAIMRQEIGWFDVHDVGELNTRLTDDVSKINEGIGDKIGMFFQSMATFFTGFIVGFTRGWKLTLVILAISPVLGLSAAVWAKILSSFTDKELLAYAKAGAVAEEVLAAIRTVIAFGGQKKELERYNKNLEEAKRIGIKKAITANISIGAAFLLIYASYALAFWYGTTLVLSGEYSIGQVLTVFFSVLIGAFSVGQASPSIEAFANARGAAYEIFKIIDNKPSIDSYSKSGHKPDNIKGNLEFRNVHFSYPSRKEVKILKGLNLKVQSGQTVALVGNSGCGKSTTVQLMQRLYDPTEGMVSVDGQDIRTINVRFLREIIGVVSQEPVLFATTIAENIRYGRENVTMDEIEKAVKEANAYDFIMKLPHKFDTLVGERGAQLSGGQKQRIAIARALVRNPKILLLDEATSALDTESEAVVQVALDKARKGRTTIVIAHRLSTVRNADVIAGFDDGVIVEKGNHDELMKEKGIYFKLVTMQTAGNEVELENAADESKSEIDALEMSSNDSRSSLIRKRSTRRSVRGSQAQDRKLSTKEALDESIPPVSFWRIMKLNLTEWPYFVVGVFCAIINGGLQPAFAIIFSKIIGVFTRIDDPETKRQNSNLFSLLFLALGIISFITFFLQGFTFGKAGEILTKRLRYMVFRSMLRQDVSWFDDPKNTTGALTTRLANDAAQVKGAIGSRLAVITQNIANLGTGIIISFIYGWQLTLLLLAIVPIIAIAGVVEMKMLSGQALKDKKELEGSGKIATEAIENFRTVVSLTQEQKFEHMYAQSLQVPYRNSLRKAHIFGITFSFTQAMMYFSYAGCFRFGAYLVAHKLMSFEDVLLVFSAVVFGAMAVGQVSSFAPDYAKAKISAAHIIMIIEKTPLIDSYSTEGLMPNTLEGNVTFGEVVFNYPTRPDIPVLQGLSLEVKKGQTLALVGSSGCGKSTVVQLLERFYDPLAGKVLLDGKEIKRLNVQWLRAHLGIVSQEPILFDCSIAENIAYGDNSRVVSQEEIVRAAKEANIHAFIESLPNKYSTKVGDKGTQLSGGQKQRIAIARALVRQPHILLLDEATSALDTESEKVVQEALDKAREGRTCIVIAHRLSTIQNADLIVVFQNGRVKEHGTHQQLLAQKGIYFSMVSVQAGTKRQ

Drug uptake [1]	inhibition at 30 min, 50 µM [2] [%]	Drug uptake [3]	SMILES
Active	63	–	CCOC(=O)C1=C(C)NC(C)=C(C(=O)NCCCCCCCCNS(=O)(=O)c2cccc3c(N(C)C)cccc23)C1c1c(-c2ccccc2)noc1C (stereo not drawn)
–	–	Active	CCOC(=O)C1=C(C)NC(C)=C(C(=O)NCCCCCCNS(=O)(=O)c2ccc(-c3c4ccc(N(CC)CC)cc4[o+]c4cc(N(CC)CC)ccc34)c(S(=O)(=O)[O-])c2)C1c1c(-c2ccccc2)noc1C (stereo not drawn)
